The source of these data is US5668141A, “Trans-2,6-,3,6-and 4,6-diaza-5,6,6a,7,8,12b-hexahydrobenzo[c]phenanthrene compounds as dopamine agonists” (Abbott Laboratories, priority 1996, dated 1997).

One assay has as its target T1, human D1 receptor (Homo sapiens, UniProt P21728).
T1 construct: expressed in transfected cells; host or cells: HEK-D1 cells (HEK cells expressing the human D1 clone)
Put plainly: Adenylate cyclase activity (cAMP stimulation in HEK-D1 cells). The assay is classed as cell-based. The note with it: read-out: IA (relative intrinsic activity to dopamine). How it is done:
Adenylate cyclase activity: Human D1 receptor.
The interaction of dopamine or a dopamine D-1 receptor agonist with the D-1 receptor causes a dose-dependent increase in the adenylate cyclase-catalyzed conversion of adenosine triphosphate (ATP) to cyclic adenosine monophosphate (cAMP). The functional activity of the compounds of the invention was determined by assaying their ability to either stimulate the enzyme adenylate cyclase to produce cAMP (agonist activity). Assays were conducted in 24-well or 48-well tissue culture plates. The assay buffer consisted of DPBS containing CaCl2 and MgCl2, 0.1% glucose, 0.5 mM IBMX, 0.004% ascorbic acid and 10 μM propranolol to inhibit potential cross activation of the endogenous β-receptor. Culture medium was removed, and HEK-D1 cell was washed once with assay buffer, and 400 μl fresh assay buffer was added for 10 min. Next, 100 μl of dopamine or dopamine agonist, dissolved in assay buffer, was added to the cell for an additional 15 min, and incubations were terminated with 500 μL 0.2N HCl. cAMP contents were determined by RIA using the automated Attoflo™ system (Rockville, Md.).
The hD1c ED50 level is a measure of the potency, showing the concentration (nM) at which a 50% response is obtained; a lower number indicates a higher potency. High intrinsic activity (IA) indicates the activity of the compound as a dopamine agonist.

In another assay the test system is schizophrenia. The note with it: cited from earlier work; for antipsychotic effect: low doses.
The next assay concerns Parkinson's disease. The settings on record: alone, some early Parkinson's disease patients; cited from earlier work.
The test system of assay [1] is striatal dopamine receptors. The experiment in a line: Rotation behavior, rat rotational model (6-hydroxydopamine unilateral lesion). The assay is classed as in vivo. The settings on record: sc, 6-hydroxydopamine-lesioned rats.
Procedure: The behavioral assay used was based on the rat rotational model. Striatal dopamine was depleted by the intracranial injection of 6-hydroxydopamine, a neurotoxin which specifically destroys catecholaminergic neurons. […] This unilateral lesioning of dopamine-containing neurons causes the post-synaptic dopamine receptors to become supersensitive to dopaminergic stimulation in behavioral assays. […] Agonist activity was measured by the ability of the test compound to induce rotation.
A lower number indicates a higher potency.
The test system of assay [2] is neural feeding mechanisms. The note with it: rats; cited from earlier work.
The subject of a further assay is acute renal failure. The settings on record: in combination with diuretics, patients; cited from earlier work.
A further assay deals with dopamine receptor. The note with it: cited from earlier work.

Structures are written as SMILES. Counter-ions that a name gives are not always drawn.

T1 sequence (P21728 whole entry): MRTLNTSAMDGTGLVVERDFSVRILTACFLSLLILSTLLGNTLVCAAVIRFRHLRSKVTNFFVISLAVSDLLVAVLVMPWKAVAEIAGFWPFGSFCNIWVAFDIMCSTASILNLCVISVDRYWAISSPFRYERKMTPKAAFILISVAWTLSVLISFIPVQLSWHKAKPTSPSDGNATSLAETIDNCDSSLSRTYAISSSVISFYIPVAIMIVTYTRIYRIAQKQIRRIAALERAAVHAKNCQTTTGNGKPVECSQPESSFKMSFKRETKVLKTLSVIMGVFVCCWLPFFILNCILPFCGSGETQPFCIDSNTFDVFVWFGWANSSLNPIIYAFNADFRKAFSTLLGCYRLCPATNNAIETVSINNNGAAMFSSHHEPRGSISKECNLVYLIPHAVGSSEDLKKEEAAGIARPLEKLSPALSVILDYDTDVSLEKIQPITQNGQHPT

With `Oc1cc2c(cc1O)[C@@H]1c3ccncc3CN[C@H]1CC2` (relative stereo) [Example 13, trans-3,6-diaza-5,6,6a,7,8,12b-hexahydrobenzo[c]phenanthrene 10,11-diol dihydrobromide], the Emax at human D1 receptor worked out at 131%.

`Oc1cc2c(cc1O)[C@@H]1c3cccnc3CN[C@H]1CC2` (relative stereo) [Example 1, trans-4,6-diaza-5,6,6a,7,8,12b-hexahydrobenzo[c]phenanthrene 10,11-diol dihydrobromide]: on human D1 receptor, the Emax is 125%.

For the compound `Cc1cc2c(nc1C)CN[C@H]1CCc3cc(O)c(O)cc3[C@H]21` (relative stereo) [Example 9, trans-4,6 diaza-5,6,6a,7,8,12b-hexahdro-2,3-dimethylbenzo[c]phenanthrene 10,11-diol dihydrobromide], the Emax at human D1 receptor came to 134%.

For `Oc1cc2c(cc1O)[C@@H]1c3cc4c(nc3CN[C@H]1CC2)CCCC4` (relative stereo) [Example 10, trans-4,6-diaza-5,6,6a,7,8,12b-hexahydro-2,3-cyclohexenobenzo[c]phenanthrene 10,11-diol dihydrobromide], the Emax at human D1 receptor was 136%.

In the case of `Cc1cnc2c(c1)[C@H]1c3cc(O)c(O)cc3CC[C@@H]1NC2` (relative stereo) [Example 7, trans-4,6-diaza-5,6,6a,7,8,12b-hexahydro-2-methylbenzo[c]phenanthrene 10,11-diol dihydrobromide], the Emax on human D1 receptor turned out to be 156%.

On to `COc1ccc2c(n1)CN[C@H]1CCc3cc(O)c(O)cc3[C@H]21` (relative stereo) [Example 4, trans-4,6-diaza-5,6,6a,7,8,12b-hexahydro-3-methoxybenzo[c]phenanthrene 10,11-diol dihydrobromide], for which the Emax at human D1 receptor turned out to be 114%.

Take `CC(C)C[C@H]1C(=O)N2CCC[C@H]2[C@]2(O)O[C@](NC(=O)[C@@H]3C=C4c5cccc6[nH]c(Br)c(c56)C[C@H]4N(C)C3)(C(C)C)C(=O)N12` [Bromocriptine]: the antipsychotic effect entry in the assay on schizophrenia is “produce antipsychotic effects”. Also, the “effect on Parkinson's disease symptoms” value in the assay on Parkinson's disease was “relieve Parkinson's disease symptoms in some early Parkinson's disease patients”.

In the case of `Cc1cncc2c1CN[C@H]1CCc3cc(O)c(O)cc3[C@H]21` (relative stereo) [Example 14, trans-2,6-diaza-4-methyl-5,6,6a,7,8,12b-hexahydrobenzo[c]phenanthrene 10,11-diol dihydrobromide], the Emax at human D1 receptor is 75%.

With `CCCc1ccc2c(n1)CN[C@H]1CCc3cc(O)c(O)cc3[C@H]21` (relative stereo) [Example 3, trans-4,6-diaza-5,6,6a,7,8,12b-hexahydro-3-propylbenzo[c]phenanthrene 10,11-diol dihydrobromide], the “Rotation behavior EC50” value in assay [1] came to 0.14 µmol/kg. Further, the Emax on human D1 receptor is 116%.

Take `Oc1cc2c(cc1O)C(c1ccccc1)CNCC2` (stereo not shown) [SKF 38393]: in the assay with schizophrenia (in conjunction with haloperidol), the “effect on side-effects of haloperidol” value was “ameliorate the undesired side-effects of the haloperidol”. In addition, the “effect on food intake” value in assay [2] is listed as “decrease food intake by rats”.

Take `Oc1cc2c(cc1O)[C@@H]1c3ccc(F)nc3CN[C@H]1CC2` (relative stereo) [Example 5, trans-4,6-diaza-3-fluoro-5,6,6a,7,8,12 b-hexahydrobenzo[c]phenanthrene 10,11-diol dihydrobromide]: the “Rotation behavior EC50” value in assay [1] stood at 0.82 µmol/kg. Also, the Emax on human D1 receptor amounted to 141%.

In the case of `CN1CCc2cccc3c2[C@H]1Cc1ccc(O)c(O)c1-3` [apomorphine], the antipsychotic effect result with schizophrenia is recorded as “produce antipsychotic effects”.

Take `CCCCc1cnc2c(c1)[C@H]1c3cc(O)c(O)cc3CC[C@@H]1NC2` (relative stereo) [Example 8, trans-4,6-diaza-5,6,6a,7,8,12b-hexahydro-2-butylbenzo[c]phenanthrene 10,11-diol dihydrobromide]: at human D1 receptor, the Emax was found to be 118%.

Regarding `NCCc1ccc(O)c(O)c1` [dopamine], in the assay with acute renal failure, the “effect on acute renal failure” value is listed as “reverse radio-contrast media-induced acute renal failure”.

Turning to `Oc1cc2c(cc1O)[C@@H]1c3cncc(F)c3CN[C@H]1CC2` (relative stereo) [Example 12, trans-2,6-diaza-4-fluoro-5,6,6a,7,8,12b-hexahydrobenzo[c]phenanthrene 10,11-diol dihydrobromide], the Emax at human D1 receptor came out at 126%.

In the case of `Oc1cc2c(cc1O)[C@H]1c3ccccc3CN[C@@H]1CC2` (racemic) [dihydrexidine], the dopamine agonist activity entry in the assay on dopamine receptor was “active as a dopamine agonist”.

For the compound `Oc1cc2c(cc1O)[C@@H]1c3cnccc3CN[C@H]1CC2` (relative stereo) [Example 11, trans-2,6-diaza-5,6,6a,7,8,12b-hexahydrobenzo[c]phenanthrene 10,11-diol dihydrobromide], the Emax at human D1 receptor was 81%.

On to `Cc1ccc2c(n1)CN[C@H]1CCc3cc(O)c(O)cc3[C@H]21` (relative stereo) [Example 2, trans-4,6-diaza-5,6,6a,7,8,12b-hexahydro-3-methylbenzo[c]phenanthrene 10,11-diol dihydrobromide], for which the Emax on human D1 receptor was 121%.
